Source: patent US20240199542A1, “SUBSTITUTED PYRROLIDIN-2-ONES, SALTS THEREOF AND THEIR USE AS HERBICIDALLY ACTIVE SUBSTANCES” (Bayer Aktiengesellschaft, priority 2021, published 2024)

Tests used:
Type in all cases: in vivo
[1] = test system: Echinochloa crus-galli (ECHCG); experiment: Herbicidal post-emergence action; settings: 1280 g/ha, assessed after ca. 3 weeks
Excerpt: (§1) Seeds of mono- and dicotyledonous weed plants and crop plants were sown, in plastic or organic planting pots, in sandy loam, covered with soil and grown in a greenhouse under controlled growth conditions. 2 to 3 weeks after sowing, the test plants were sprayed in the single-leaf stage. The compounds according to the invention, formulated in form of wettable powders (WP) or as emulsifiable concentrates (EC), were sprayed onto the green plant parts as aqueous suspension or emulsion, with the addition of 0.5% of an additive, at an application rate of 600 1 of water/ha (converted). The test plants were placed in the greenhouse for ca. 3 weeks under optimum growth conditions, and then the effect of the preparations was assessed visually in comparison with untreated controls (herbicidal effect in percent (%): 100% effect=plants have died off, 0% effect=as control plants).
(§2) Tables B1 to B16 below show the effects of selected compounds of the general formula (I) according to table 1 on various harmful plants and an application rate corresponding to 1280 g/ha or 320 g/ha obtained by the experimental procedure mentioned above.

[2] = test system: Avena fatua (AVEFA); experiment: Herbicidal pre-emergence action; settings: graded after ca. 3 weeks
Excerpt: (§3) Seeds of mono- and dicotyledonous weed plants and crop plants were sown, in plastic or organic planting pots, in sandy loam and covered with soil. The compounds according to the invention, formulated in the form of wettable powders (WP) or as emulsifiable concentrates (EC), were applied to the surface of the covering soil as aqueous suspension or emulsion, with the addition of 0.5% of an additive, at an application rate of 600 1 of water/ha (converted).
(§4) Following treatment, the pots were placed in a greenhouse and kept under optimum growth conditions for the test plants. The visual grading of the damage to the test plants was carried out after ca. 3 weeks in comparison to untreated controls (herbicidal effect in percent (%): 100% effect=plants have died off, 0% effect=as control plants).
(§5) Tables A1 to A16, below, show the effects of selected compounds of the general formula (I) according to table 1 on various harmful plants and an application rate corresponding to 1280 g/ha or lower obtained by the experimental procedure mentioned above.

[3] = test system: Alopecurus myosuroides (ALOMY); experiment: Herbicidal pre-emergence action; settings: 1280 g/ha, graded after ca. 3 weeks
Excerpt: as §3, §4, §5

[4] = test system: Avena fatua (AVEFA); experiment: Herbicidal post-emergence action; settings: 1280 g/ha, assessed after ca. 3 weeks
Excerpt: as §1, §2

[5] = test system: Alopecurus myosuroides (ALOMY); experiment: Herbicidal post-emergence action; settings: 1280 g/ha, assessed after ca. 3 weeks
Excerpt: as §1, §2

[6] = test system: Polygonum convolvulus (POLCO); experiment: Herbicidal pre-emergence action; settings: graded after ca. 3 weeks
Excerpt: as §3, §4, §5

[7] = test system: Lolium multiflorum (LOLMU); experiment: Herbicidal pre-emergence action; settings: 1280 g/ha, graded after ca. 3 weeks
Excerpt: as §3, §4, §5

[8] = test system: Echinochloa crus-galli (ECHCG); experiment: Herbicidal pre-emergence action; settings: 1280 g/ha, graded after ca. 3 weeks
Excerpt: as §3, §4, §5

[9] = test system: Setaria viridis (SETVI); experiment: Herbicidal post-emergence action; settings: 1280 g/ha, assessed after ca. 3 weeks
Excerpt: as §1, §2

[10] = test system: Lolium multiflorum (LOLMU); experiment: Herbicidal post-emergence action; settings: 1280 g/ha, assessed after ca. 3 weeks
Excerpt: as §1, §2

[11] = test system: Setaria viridis (SETVI); experiment: Herbicidal pre-emergence action; settings: 1280 g/ha, graded after ca. 3 weeks
Excerpt: as §3, §4, §5

Compound | Post-emergence activity against ECHCG [1] | Pre-emergence activity against AVEFA ([2]; 1280 g/ha) | Pre-emergence activity against ALOMY [3] | Post-emergence activity against AVEFA [4] | other results
COC(=O)[C@H](Cc1c[nH]cn1)NC(=O)CC1CCC(=O)N1Cc1cccc(F)c1F (single isomer, unassigned) [Example I-050] | 80% |  |  |  | 
O=C(CC1CCC(=O)N1Cc1cccc(F)c1F)NCCc1ccccc1 (racemic) [Example I-061] | 80% | 90% | 80% | 90% | Post-emergence activity against ALOMY [5]: 90%
COCCNC(=O)CC1CCC(=O)N1Cc1cccc(F)c1F (racemic) [Example I-091] |  |  | 90% |  | 
C#CCNC(=O)CC1CCC(=O)N1Cc1cccc(F)c1F (racemic) [Example I-092] |  | 80% |  |  | 
C=CCNC(=O)CC1CCC(=O)N1Cc1cccc(F)c1F (racemic) [Example I-059] | 80% | 80% | 80% | 80% | 
COC(=O)CN(C)C(=O)CC1CCC(=O)N1Cc1cccc(F)c1F (racemic) [Example I-053] | 80% | 90% | 90% | 80% | Post-emergence activity against ALOMY [5]: 80%
CNC(=O)CC1CCC(=O)N1Cc1cccc(F)c1F (racemic) [Example I-104] |  |  |  |  | Pre-emergence activity against POLCO ([6]; 1280 g/ha): 90%
O=C(CC1CCC(=O)N1Cc1cccc(F)c1F)NN1CCCCC1 (racemic) [Example I-203] |  |  |  |  | Pre-emergence activity against AVEFA ([2]; 320 g/ha): 100%; Pre-emergence activity against POLCO ([6]; 320 g/ha): 80%
CCS(=O)(=O)NC(=O)CC1CCC(=O)N1Cc1cccc(F)c1F (racemic) [Example I-072] | 80% | 80% |  | 80% | 
CC(C)S(=O)(=O)NC(=O)CC1CCC(=O)N1Cc1cccc(F)c1F (racemic) [Example I-076] |  | 80% |  | 80% | 
O=C(CC1CCC(=O)N1Cc1cccc(F)c1F)NC(Cc1c[nH]c2ccccc12)C(=O)O (mixture of isomers) [Example I-068] |  | 80% | 80% |  | 
O=C(CC1CCC(=O)N1Cc1cccc(F)c1F)NCCO (racemic) [Example I-049] |  | 100% | 90% |  | Pre-emergence activity against LOLMU [7]: 80%; Pre-emergence activity against POLCO ([6]; 1280 g/ha): 90%; Pre-emergence activity against ECHCG [8]: 80%; Post-emergence activity against ALOMY [5]: 80%
CN(C(=O)CC1CCC(=O)N1Cc1cccc(F)c1F)c1ccccc1 (racemic) [Example I-100] |  |  | 90% |  | 
CCn1ccc(CNC(=O)CC2CCC(=O)N2Cc2cccc(F)c2F)n1 (racemic) [Example I-085] |  |  |  | 90% | 
CSCCOC(=O)CC1CCC(=O)N1Cc1cccc(F)c1F (racemic) [Example I-010] | 100% | 100% | 80% | 90% | Post-emergence activity against SETVI [9]: 90%; Post-emergence activity against LOLMU [10]: 90%; Post-emergence activity against ALOMY [5]: 80%
CC1(C)OC(=O)C(C(=O)CC2CCC(=O)N2Cc2cccc(F)c2F)C(=O)O1 (racemic) [Example I-186] | 80% |  |  |  | Pre-emergence activity against POLCO ([6]; 1280 g/ha): 100%
O=C(CC1CCC(=O)N1Cc1cccc(F)c1F)NS(=O)(=O)C(F)F (racemic) [Example I-074] | 80% |  |  |  | 
COC(=O)CCNC(=O)CC1CCC(=O)N1Cc1cccc(F)c1F (racemic) [Example I-084] |  |  | 80% |  | 
O=C(CC1CCC(=O)N1Cc1cccc(F)c1F)NS(=O)(=O)C(F)(F)F (racemic) [Example I-052] | 80% | 90% |  |  | Post-emergence activity against LOLMU [10]: 80%
O=C(O)CC1CCC(=O)N1Cc1c(F)ccc(F)c1F (stereo not drawn) [Example I-191, [5-Oxo-1-(2,3,6-trifluorobenzyl)pyrrolidin-2-yl]acetic acid] |  |  |  |  | Pre-emergence activity against AVEFA ([2]; 320 g/ha): 100%
O=C(CC1CCC(=O)N1Cc1cccc(F)c1F)NCc1cccc2ncccc12 (racemic) [Example I-079] |  |  |  | 90% | 
O=C(CC1CCC(=O)N1Cc1cccc(F)c1F)NS(=O)(=O)C1CC1 (racemic) [Example I-086] | 80% |  |  |  | 
CS(=O)(=O)NC(=O)CC1CCC(=O)N1Cc1cccc(Cl)c1F (racemic) [Example I-070] | 80% |  |  | 80% | 
CN(C)NC(=O)CC1CCC(=O)N1Cc1cccc(F)c1F (racemic) [Example I-058] | 80% | 100% | 90% | 80% | Pre-emergence activity against LOLMU [7]: 80%; Post-emergence activity against ALOMY [5]: 80%
O=C(CC1CCC(=O)N1Cc1cccc(F)c1F)OCC[S+]([O-])c1ccc(Cl)cc1 (racemic) [Example I-029] | 90% | 100% | 80% | 90% | Pre-emergence activity against SETVI [11]: 80%; Pre-emergence activity against LOLMU [7]: 80%; Pre-emergence activity against ECHCG [8]: 90%; Post-emergence activity against LOLMU [10]: 80%; Post-emergence activity against ALOMY [5]: 80%
CC(C)OC(=O)CC1CCC(=O)N1Cc1cccc(F)c1F (racemic) [Example I-025] | 90% | 100% | 90% | 80% | Pre-emergence activity against SETVI [11]: 80%; Pre-emergence activity against LOLMU [7]: 90%; Pre-emergence activity against POLCO ([6]; 1280 g/ha): 80%; Pre-emergence activity against ECHCG [8]: 90%; Post-emergence activity against LOLMU [10]: 80%; Post-emergence activity against ALOMY [5]: 80%
CCNC(=O)CC1CCC(=O)N1Cc1cccc(F)c1F (racemic) [Example I-098] |  |  |  | 80% | 
O=C(CC1CCC(=O)N1Cc1cccc(F)c1F)OCCSc1ccc(Cl)cc1 (racemic) [Example I-038] | 90% |  |  |  | Post-emergence activity against SETVI [9]: 80%; Post-emergence activity against LOLMU [10]: 80%; Post-emergence activity against ALOMY [5]: 80%
CC[C@H](C)[C@H](NC(=O)CC1CCC(=O)N1Cc1cccc(F)c1F)C(=O)O (single isomer, unassigned) [Example I-011] | 80% | 90% | 80% | 90% | Pre-emergence activity against LOLMU [7]: 80%; Post-emergence activity against LOLMU [10]: 90%
